Data as given in ChEMBL document CHEMBL1138574, “Regioselective synthesis and stereochemical structure of anti-tumor active dispiro[3H-indole-3,2'-pyrrolidine-3',3''-piperidine]-2(1H),4''-diones” (2009).

Tests used:
Assay type in all cases: functional
[1] = test system: A549; assay: Antitumor activity against human A549 cells assessed as cell growth at 10 uM after 48 hrs by sulforhodamine B assay; settings: A549, 48 h, read-out: Activity
[2] = test system: HOP-62; assay: Antitumor activity against human HOP62 cells assessed as cell growth at 10 uM after 48 hrs by sulforhodamine B assay; settings: HOP-62, 48 h, read-out: Activity
[3] = test system: NCI-H226; assay: Antitumor activity against human NCI-H226 cells assessed as cell growth at 10 uM after 48 hrs by sulforhodamine B assay; settings: NCI-H226, 48 h, read-out: Activity
[4] = test system: NCI-H23; assay: Antitumor activity against human NCI-H23 cells assessed as cell growth at 10 uM after 48 hrs by sulforhodamine B assay; settings: NCI-H23, 48 h, read-out: Activity
[5] = test system: NCI-H522; assay: Antitumor activity against human NCI-H522 cells assessed as cell growth at 10 uM after 48 hrs by sulforhodamine B assay; settings: NCI-H522, 48 h, read-out: Activity
[6] = test system: HCC 2998; assay: Antitumor activity against human HCC2998 cells assessed as cell growth at 10 uM after 48 hrs by sulforhodamine B assay; settings: HCC 2998, 48 h, read-out: Activity
[7] = test system: HCT-116; assay: Antitumor activity against human HCT116 cells assessed as cell growth at 10 uM after 48 hrs by sulforhodamine B assay; settings: HCT-116, 48 h, read-out: Activity
[8] = test system: HCT-15; assay: Antitumor activity against human HCT15 cells assessed as cell growth at 10 uM after 48 hrs by sulforhodamine B assay; settings: HCT-15, 48 h, read-out: Activity
[9] = test system: HT-29; assay: Antitumor activity against human HT-29 cells assessed as cell growth at 10 uM after 48 hrs by sulforhodamine B assay; settings: HT-29, 48 h, read-out: Activity
[10] = test system: KM12; assay: Antitumor activity against human KM12 cells assessed as cell growth at 10 uM after 48 hrs by sulforhodamine B assay; settings: KM12, 48 h, read-out: Activity
[11] = test system: SW-620; assay: Antitumor activity against human SW620 cells assessed as cell growth at 10 uM after 48 hrs by sulforhodamine B assay; settings: SW-620, 48 h, read-out: Activity
[12] = test system: BT-549; assay: Antitumor activity against human BT549 cells assessed as cell growth at 10 uM after 48 hrs by sulforhodamine B assay; settings: BT-549, 48 h, read-out: Activity
[13] = test system: MDA-MB-468; assay: Antitumor activity against human MDA-MB-468 cells assessed as cell growth at 10 uM after 48 hrs by sulforhodamine B assay; settings: MDA-MB-468, 48 h, read-out: Activity
[14] = test system: OVCAR-3; assay: Antitumor activity against human OVCAR-3 cells assessed as cell growth at 10 uM after 48 hrs by sulforhodamine B assay; settings: OVCAR-3, 48 h, read-out: Activity
[15] = test system: OVCAR-4; assay: Antitumor activity against human OVCAR4 cells assessed as cell growth at 10 uM after 48 hrs by sulforhodamine B assay; settings: OVCAR-4, 48 h, read-out: Activity
[16] = test system: OVCAR-5; assay: Antitumor activity against human OVCAR5 cells assessed as cell growth at 10 uM after 48 hrs by sulforhodamine B assay; settings: OVCAR-5, 48 h, read-out: Activity
[17] = test system: SK-OV-3; assay: Antitumor activity against human SKOV3 cells assessed as cell growth at 10 uM after 48 hrs by sulforhodamine B assay; settings: SK-OV-3, 48 h, read-out: Activity
[18] = test system: 786-0; assay: Antitumor activity against human 786-0 cells assessed as cell growth at 10 uM after 48 hrs by sulforhodamine B assay; settings: 786-0, 48 h, read-out: Activity
[19] = test system: A498; assay: Antitumor activity against human A498 cells assessed as cell growth at 10 uM after 48 hrs by sulforhodamine B assay; settings: A498, 48 h, read-out: Activity
[20] = test system: CAKI-1; assay: Antitumor activity against human Caki1 cells assessed as cell growth at 10 uM after 48 hrs by sulforhodamine B assay; settings: CAKI-1, 48 h, read-out: Activity
[21] = test system: RXF 393; assay: Antitumor activity against human RXF393 cells assessed as cell growth at 10 uM after 48 hrs by sulforhodamine B assay; settings: RXF 393, 48 h, read-out: Activity
[22] = test system: SN12C; assay: Antitumor activity against human SN12C cells assessed as cell growth at 10 uM after 48 hrs by sulforhodamine B assay; settings: read-out: Activity
[23] = test system: Malme-3M; assay: Antitumor activity against human MALME-3M cells assessed as cell growth at 10 uM after 48 hrs by sulforhodamine B assay; settings: read-out: Activity
[24] = test system: SK-MEL-2; assay: Antitumor activity against human SK-MEL-2 cells assessed as cell growth at 10 uM after 48 hrs by sulforhodamine B assay; settings: SK-MEL-2, 48 h, read-out: Activity
[25] = test system: SK-MEL-28; assay: Antitumor activity against human SK-MEL-28 cells assessed as cell growth at 10 uM after 48 hrs by sulforhodamine B assay; settings: SK-MEL-28, 48 h, read-out: Activity
[26] = test system: UACC-257; assay: Antitumor activity against human UACC257 cells assessed as cell growth at 10 uM after 48 hrs by sulforhodamine B assay; settings: UACC-257, 48 h, read-out: Activity
[27] = test system: UACC-62; assay: Antitumor activity against human UACC62 cells assessed as cell growth at 10 uM after 48 hrs by sulforhodamine B assay; settings: UACC-62, 48 h, read-out: Activity
[28] = test system: DU-145; assay: Antitumor activity against human DU145 cells assessed as cell growth at 10 uM after 48 hrs by sulforhodamine B assay; settings: DU-145, 48 h, read-out: Activity
[29] = test system: SNB-75; assay: Antitumor activity against human SNB75 cells assessed as cell growth at 10 uM after 48 hrs by sulforhodamine B assay; settings: SNB-75, 48 h, read-out: Activity
[30] = test system: U-251; assay: Antitumor activity against human U251 cells assessed as cell growth at 10 uM after 48 hrs by sulforhodamine B assay; settings: U-251, 48 h, read-out: Activity
[31] = test system: Rattus norvegicus; assay: Antiinflammatory activity in Wister albino rat assessed as inhibition of carrageenan-induced paw oedema at 50 mg/kg, ip administered 1 hr before carrageenan challenge measured after 1 hr of induction of inflammation relative to control; settings: route intraperitoneal
[32] = test system: Rattus norvegicus; assay: Antiinflammatory activity in Wister albino rat assessed as inhibition of carrageenan-induced paw oedema at 50 mg/kg, ip administered 1 hr before carrageenan challenge measured after 2 hrs of induction of inflammation relative to control; settings: route intraperitoneal
[33] = test system: Rattus norvegicus; assay: Antiinflammatory activity in Wister albino rat assessed as inhibition of carrageenan-induced paw oedema at 50 mg/kg, ip administered 1 hr before carrageenan challenge measured after 3 hrs of induction of inflammation relative to control; settings: route intraperitoneal
[34] = test system: Rattus norvegicus; assay: Antiinflammatory activity in Wister albino rat assessed as inhibition of carrageenan-induced paw oedema at 50 mg/kg, ip administered 1 hr before carrageenan challenge measured after 4 hrs of induction of inflammation relative to control; settings: route intraperitoneal
[35] = test system: Rattus norvegicus; assay: Antiinflammatory activity in Wister albino rat assessed as inhibition of carrageenan-induced paw oedema at 50 mg/kg, ip administered 1 hr before carrageenan challenge measured after 24 hrs of induction of inflammation relative to control; settings: route intraperitoneal

Compound	growth at 10 µM [1] [%]	growth at 10 µM [2] [%]	growth at 10 µM [3] [%]	growth at 10 µM [4] [%]	growth at 10 µM [5] [%]	growth at 10 µM [6] [%]	growth at 10 µM [7] [%]	growth at 10 µM [8] [%]	growth at 10 µM [9] [%]	growth at 10 µM [10] [%]	growth at 10 µM [11] [%]	growth at 10 µM [12] [%]	growth at 10 µM [13] [%]	growth at 10 µM [14] [%]	growth at 10 µM [15] [%]	growth at 10 µM [16] [%]	growth at 10 µM [17] [%]	growth at 10 µM [18] [%]	growth at 10 µM [19] [%]	growth at 10 µM [20] [%]	other results
CN1C/C(=C\c2ccc(-c3cccs3)cc2)C(=O)[C@]2(C1)[C@@H](c1ccc(-c3cccs3)cc1)CN(C)[C@@]21C(=O)N(C)c2ccccc21	58	58.8	58	26.1	49.4	40.6	30.6	62.1	56.1	45.2	53.8	79.7	33.4	33.6	37.3	103	59.5	65.8	46.5	57.2	growth at 10 µM [21]: 55.6%; growth at 10 µM [22]: 64.3%; growth at 10 µM [23]: 76.4%; growth at 10 µM [24]: 68.6%; growth at 10 µM [25]: 80%; growth at 10 µM [26]: 64.6%; growth at 10 µM [27]: 47.6%; growth at 10 µM [28]: 67.4%; growth at 10 µM [29]: 64.5%; growth at 10 µM [30]: 62.8%; inhibition in vivo at 50 mg/kg [31]: 84.7%; inhibition in vivo at 50 mg/kg [32]: 68.3%; inhibition in vivo at 50 mg/kg [33]: 73.9%; inhibition in vivo at 50 mg/kg [34]: 69.8%; inhibition in vivo at 50 mg/kg [35]: 74.3%
COc1ccc(/C=C2\CN(C)C[C@@]3(C2=O)[C@@H](c2ccccc2)CN(C)[C@@]32C(=O)Nc3ccccc32)cc1	44.4	69.9	63	50.4	50.2	65.5	26.8	50.8	58.1	37.7	47.8	56.3	58.9	50.3	52.7	92.5	75.6	57.2	32.5	54.3	growth at 10 µM [21]: 57.8%; growth at 10 µM [22]: 58.4%; growth at 10 µM [23]: 58.7%; growth at 10 µM [24]: 60.7%; growth at 10 µM [25]: 76.3%; growth at 10 µM [26]: 70.3%; growth at 10 µM [27]: 47.8%; growth at 10 µM [28]: 70.3%; growth at 10 µM [29]: 59.4%; growth at 10 µM [30]: 52.1%; inhibition in vivo at 50 mg/kg [31]: 80.1%; inhibition in vivo at 50 mg/kg [32]: 76.4%; inhibition in vivo at 50 mg/kg [33]: 76.5%; inhibition in vivo at 50 mg/kg [34]: 78.7%; inhibition in vivo at 50 mg/kg [35]: 52.9%
CN1C/C(=C\c2ccc(Cl)cc2)C(=O)[C@]2(C1)[C@@H](c1ccc(Cl)cc1)CN(C)[C@@]21C(=O)N(C)c2ccccc21	70	71	58.6	33.9	56.4	71.9	29.9	76.2	68.4	78.7	68.1	80.3	66.9	60.5	43.1	87.7	85.2	73.9	69.4	56.6	growth at 10 µM [21]: 67.2%; growth at 10 µM [22]: 62.9%; growth at 10 µM [23]: 73.5%; growth at 10 µM [24]: 71.9%; growth at 10 µM [25]: 104%; growth at 10 µM [26]: 72%; growth at 10 µM [27]: 59.9%; growth at 10 µM [28]: 88.4%; growth at 10 µM [29]: 65.2%; growth at 10 µM [30]: 68.6%; inhibition in vivo at 50 mg/kg [31]: 82.3%; inhibition in vivo at 50 mg/kg [32]: 62.2%; inhibition in vivo at 50 mg/kg [33]: 44.5%; inhibition in vivo at 50 mg/kg [34]: 45.7%; inhibition in vivo at 50 mg/kg [35]: 49.3%
CN1C/C(=C\c2ccc(Cl)cc2)C(=O)[C@]2(C1)[C@@H](c1ccc(Cl)cc1)CN(C)[C@@]21C(=O)Nc2ccccc21	62.4	73.6	64.4	44.8	59.8	70.7	45.9	68.5	59.5	64.2	57.7	63.9	56.6	48.4	49.6	94.2	80.6	71.8	55.3	45.8	growth at 10 µM [21]: 67.5%; growth at 10 µM [22]: 64.1%; growth at 10 µM [23]: 91.9%; growth at 10 µM [24]: 76.2%; growth at 10 µM [25]: 101%; growth at 10 µM [26]: 79.3%; growth at 10 µM [27]: 67.2%; growth at 10 µM [28]: 83.8%; growth at 10 µM [29]: 56.7%; growth at 10 µM [30]: 64.8%; inhibition in vivo at 50 mg/kg [31]: 83.1%; inhibition in vivo at 50 mg/kg [32]: 63%; inhibition in vivo at 50 mg/kg [33]: 49.6%; inhibition in vivo at 50 mg/kg [34]: 42.2%; inhibition in vivo at 50 mg/kg [35]: 38.2%
